Literature values, collected in patent publication US6699900B2, “Hydrophilic and lipophilic silibinin pro-forms” (priority 2001, dated 2004).

Settings: Merck Index, Reference 8680

SMILES: COc1cc(C2Oc3cc([C@H]4Oc5cc(O)cc(O)c5C(=O)[C@@H]4O)ccc3OC2CO)ccc1O (stereo partly shown) [silibinin]
- solubility in aqueous or lipophilic phases: not readily soluble
